Data: patent US10961236B2, “(S)-2-(1-cyclopropylethyl)-5-(4-methyl-2-((6-(2-oxopyrrolidin-1-yl)pyridin-2-yl)amino) thiazol-5-yl)-7-(methylsulfonyl)isoindolin-1-one as a phosphatidylinositol 3-kinase inhibitor” (AstraZeneca AB, priority 2016, dated 2021)

Assays:
Type in all cases: biochemical
[1] = biological target: recombinant human PI3Kδ (6-His(p110-p85α)) (Homo sapiens (Human), UniProt O00329); test: Enzymatic activity assay for recombinant human PI3Kδ (ADP-Glo); conditions: 0.6 nM PI3Kδ, 20 μM ATP, 80 μM DiC8-PIP2, ADP-Glo
Summary of the method: (§1)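 ADP-Glo luminescence after DiC8-PIP2 (80 μM) phosphorylation with 20 μM ATP in 50 mM Tris pH 7.4, 3 mM MgCl2, 2.1 mM DTT, 0.05% CHAPS at room temperature. Enzyme 1.2 nM PI3Kγ or 0.6 nM PI3Kδ; inhibitors pre-incubated 15 min, then 60 min reaction.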

[2] = biological target: recombinant human PI3Kα (6-His(p110-p85α)) (Homo sapiens (Human), UniProt P42336); test: Enzymatic activity assay for recombinant human PI3Kα (ADP-Glo); conditions: 1.2 nM PI3Kα, 20 μM ATP, 80 μM DiC8-PIP2, ADP-Glo
Summary of the method: (§2)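 ADP-Glo luminescence after DiC8-PIP2 phosphorylation at RT: 80 μM lipid substrate, 20 μM ATP, 1.2 nM enzyme (0.6 nM for δ) in Tris pH 7.4 with MgCl2, DTT, CHAPS. Compounds pre-incubated 15 min with enzyme, then 60 min reaction; DMSO ≤1%.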

[3] = biological target: recombinant human PI3Kγ ((aa144-1102)-6His) (Homo sapiens (Human), UniProt P48736); test: Enzymatic activity assay for recombinant human PI3Kγ (ADP-Glo); conditions: 1.2 nM PI3Kγ, 20 μM ATP, 80 μM DiC8-PIP2, ADP-Glo
Summary of the method: as §1

[4] = biological target: recombinant human PI3Kβ (6-His(p110-p85α)) (Homo sapiens (Human), UniProt P42338); test: Enzymatic activity assay for recombinant human PI3Kβ (ADP-Glo); conditions: 1.2 nM PI3Kβ, 20 μM ATP, 80 μM DiC8-PIP2, ADP-Glo
Summary of the method: as §2

recombinant human PI3Kδ (6-His(p110-p85α)), sequence (O00329 whole entry): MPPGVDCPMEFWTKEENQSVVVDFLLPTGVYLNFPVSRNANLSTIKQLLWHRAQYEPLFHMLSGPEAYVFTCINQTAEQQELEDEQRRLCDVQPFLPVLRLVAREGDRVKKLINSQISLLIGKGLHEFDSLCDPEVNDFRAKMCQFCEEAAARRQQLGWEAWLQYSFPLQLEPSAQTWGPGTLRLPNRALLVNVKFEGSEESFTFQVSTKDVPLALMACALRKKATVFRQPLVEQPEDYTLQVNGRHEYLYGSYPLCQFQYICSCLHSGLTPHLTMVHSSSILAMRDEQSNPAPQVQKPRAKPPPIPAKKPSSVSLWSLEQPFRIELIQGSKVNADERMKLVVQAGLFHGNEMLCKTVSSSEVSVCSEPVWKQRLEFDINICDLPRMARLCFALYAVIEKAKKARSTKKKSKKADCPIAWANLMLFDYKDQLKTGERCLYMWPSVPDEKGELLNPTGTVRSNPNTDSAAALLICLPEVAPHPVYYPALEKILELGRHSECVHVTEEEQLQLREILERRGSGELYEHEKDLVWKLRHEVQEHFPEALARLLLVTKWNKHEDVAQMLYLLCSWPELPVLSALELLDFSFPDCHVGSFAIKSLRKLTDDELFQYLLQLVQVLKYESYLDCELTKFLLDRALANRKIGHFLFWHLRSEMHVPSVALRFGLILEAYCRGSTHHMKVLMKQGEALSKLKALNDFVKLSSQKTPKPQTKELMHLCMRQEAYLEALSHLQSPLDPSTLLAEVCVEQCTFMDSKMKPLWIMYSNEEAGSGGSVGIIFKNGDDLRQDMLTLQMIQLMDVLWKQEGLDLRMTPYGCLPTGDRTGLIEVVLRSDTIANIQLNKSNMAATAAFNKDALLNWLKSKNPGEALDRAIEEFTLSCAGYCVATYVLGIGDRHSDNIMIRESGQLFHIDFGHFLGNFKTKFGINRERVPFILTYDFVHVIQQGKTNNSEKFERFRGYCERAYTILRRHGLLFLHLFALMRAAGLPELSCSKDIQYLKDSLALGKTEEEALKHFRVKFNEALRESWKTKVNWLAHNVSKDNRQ
recombinant human PI3Kδ (6-His(p110-p85α)), sequence (P27986 whole entry partner): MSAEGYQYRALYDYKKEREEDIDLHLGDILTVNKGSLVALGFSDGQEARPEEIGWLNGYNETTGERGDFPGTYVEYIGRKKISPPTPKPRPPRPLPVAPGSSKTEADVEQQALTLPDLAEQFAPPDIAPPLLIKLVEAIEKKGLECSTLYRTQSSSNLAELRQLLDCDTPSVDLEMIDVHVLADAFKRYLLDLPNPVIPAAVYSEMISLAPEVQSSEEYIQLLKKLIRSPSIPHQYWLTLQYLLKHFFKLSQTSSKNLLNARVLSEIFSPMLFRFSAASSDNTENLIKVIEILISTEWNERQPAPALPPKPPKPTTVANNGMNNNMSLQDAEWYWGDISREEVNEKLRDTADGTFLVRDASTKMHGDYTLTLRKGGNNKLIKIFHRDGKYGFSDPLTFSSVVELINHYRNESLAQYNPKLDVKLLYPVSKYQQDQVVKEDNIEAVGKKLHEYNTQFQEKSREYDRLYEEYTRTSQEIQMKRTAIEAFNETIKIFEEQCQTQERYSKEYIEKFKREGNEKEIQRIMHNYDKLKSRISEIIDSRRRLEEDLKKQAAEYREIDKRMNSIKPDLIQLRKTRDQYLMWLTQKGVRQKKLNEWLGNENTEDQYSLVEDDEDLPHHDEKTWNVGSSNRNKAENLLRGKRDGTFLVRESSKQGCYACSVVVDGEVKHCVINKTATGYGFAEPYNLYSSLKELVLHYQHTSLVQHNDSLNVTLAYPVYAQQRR
recombinant human PI3Kβ (6-His(p110-p85α)), sequence (P42338 whole entry): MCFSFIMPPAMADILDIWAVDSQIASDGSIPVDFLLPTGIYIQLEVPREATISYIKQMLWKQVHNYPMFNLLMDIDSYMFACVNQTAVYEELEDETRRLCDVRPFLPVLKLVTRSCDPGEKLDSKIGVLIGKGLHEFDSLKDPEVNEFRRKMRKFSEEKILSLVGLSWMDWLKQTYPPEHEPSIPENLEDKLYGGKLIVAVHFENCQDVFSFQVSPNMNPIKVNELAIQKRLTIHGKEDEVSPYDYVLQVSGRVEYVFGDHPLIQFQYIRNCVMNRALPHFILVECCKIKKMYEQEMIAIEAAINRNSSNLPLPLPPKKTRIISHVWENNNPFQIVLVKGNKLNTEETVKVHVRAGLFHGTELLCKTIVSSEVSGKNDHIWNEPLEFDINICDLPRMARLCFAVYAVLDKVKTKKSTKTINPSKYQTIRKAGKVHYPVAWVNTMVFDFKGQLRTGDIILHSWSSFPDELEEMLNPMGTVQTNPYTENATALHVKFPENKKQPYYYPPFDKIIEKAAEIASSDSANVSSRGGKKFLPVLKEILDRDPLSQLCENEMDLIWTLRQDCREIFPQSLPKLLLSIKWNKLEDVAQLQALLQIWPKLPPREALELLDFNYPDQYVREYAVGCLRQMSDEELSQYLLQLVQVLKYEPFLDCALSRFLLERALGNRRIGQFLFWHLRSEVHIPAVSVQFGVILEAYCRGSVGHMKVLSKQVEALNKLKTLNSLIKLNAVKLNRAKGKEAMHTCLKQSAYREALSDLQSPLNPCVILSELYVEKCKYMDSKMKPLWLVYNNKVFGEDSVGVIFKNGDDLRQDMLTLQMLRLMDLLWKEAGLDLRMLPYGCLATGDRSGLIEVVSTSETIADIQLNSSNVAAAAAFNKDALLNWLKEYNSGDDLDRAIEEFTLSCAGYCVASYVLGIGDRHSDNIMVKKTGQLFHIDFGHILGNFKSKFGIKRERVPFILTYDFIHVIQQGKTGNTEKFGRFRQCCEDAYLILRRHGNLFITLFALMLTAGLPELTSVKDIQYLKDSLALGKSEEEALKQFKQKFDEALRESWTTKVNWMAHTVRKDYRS
recombinant human PI3Kβ (6-His(p110-p85α)), sequence (P27986 whole entry partner): as the sequence (P27986 whole entry partner) above
recombinant human PI3Kγ ((aa144-1102)-6His), sequence (P48736 144-1102): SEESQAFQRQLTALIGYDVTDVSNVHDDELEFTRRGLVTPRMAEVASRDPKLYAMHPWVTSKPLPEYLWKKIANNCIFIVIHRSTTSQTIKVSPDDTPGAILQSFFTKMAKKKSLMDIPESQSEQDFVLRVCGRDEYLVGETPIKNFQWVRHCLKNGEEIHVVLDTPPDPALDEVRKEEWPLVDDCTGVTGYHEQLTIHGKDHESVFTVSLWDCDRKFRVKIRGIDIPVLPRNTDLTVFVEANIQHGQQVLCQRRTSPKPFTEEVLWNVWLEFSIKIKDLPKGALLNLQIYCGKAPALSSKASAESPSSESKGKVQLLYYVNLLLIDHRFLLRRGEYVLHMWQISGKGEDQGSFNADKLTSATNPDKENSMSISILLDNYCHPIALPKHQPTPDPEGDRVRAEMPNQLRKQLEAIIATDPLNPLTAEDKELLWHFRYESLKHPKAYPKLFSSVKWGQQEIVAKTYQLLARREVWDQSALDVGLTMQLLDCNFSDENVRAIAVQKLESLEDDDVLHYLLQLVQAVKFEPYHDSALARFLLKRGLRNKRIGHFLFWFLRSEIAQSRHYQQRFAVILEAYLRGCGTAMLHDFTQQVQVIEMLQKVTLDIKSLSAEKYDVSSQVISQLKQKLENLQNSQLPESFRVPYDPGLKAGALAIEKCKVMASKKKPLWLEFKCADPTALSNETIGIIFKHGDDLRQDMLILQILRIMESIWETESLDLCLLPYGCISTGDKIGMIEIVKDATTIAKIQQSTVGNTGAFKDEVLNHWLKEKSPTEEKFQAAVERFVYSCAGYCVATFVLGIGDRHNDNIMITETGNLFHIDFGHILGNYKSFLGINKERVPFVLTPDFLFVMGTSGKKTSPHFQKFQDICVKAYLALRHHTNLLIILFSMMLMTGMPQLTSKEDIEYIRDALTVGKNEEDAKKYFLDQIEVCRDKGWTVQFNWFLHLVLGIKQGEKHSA
recombinant human PI3Kα (6-His(p110-p85α)), sequence (P42336 whole entry): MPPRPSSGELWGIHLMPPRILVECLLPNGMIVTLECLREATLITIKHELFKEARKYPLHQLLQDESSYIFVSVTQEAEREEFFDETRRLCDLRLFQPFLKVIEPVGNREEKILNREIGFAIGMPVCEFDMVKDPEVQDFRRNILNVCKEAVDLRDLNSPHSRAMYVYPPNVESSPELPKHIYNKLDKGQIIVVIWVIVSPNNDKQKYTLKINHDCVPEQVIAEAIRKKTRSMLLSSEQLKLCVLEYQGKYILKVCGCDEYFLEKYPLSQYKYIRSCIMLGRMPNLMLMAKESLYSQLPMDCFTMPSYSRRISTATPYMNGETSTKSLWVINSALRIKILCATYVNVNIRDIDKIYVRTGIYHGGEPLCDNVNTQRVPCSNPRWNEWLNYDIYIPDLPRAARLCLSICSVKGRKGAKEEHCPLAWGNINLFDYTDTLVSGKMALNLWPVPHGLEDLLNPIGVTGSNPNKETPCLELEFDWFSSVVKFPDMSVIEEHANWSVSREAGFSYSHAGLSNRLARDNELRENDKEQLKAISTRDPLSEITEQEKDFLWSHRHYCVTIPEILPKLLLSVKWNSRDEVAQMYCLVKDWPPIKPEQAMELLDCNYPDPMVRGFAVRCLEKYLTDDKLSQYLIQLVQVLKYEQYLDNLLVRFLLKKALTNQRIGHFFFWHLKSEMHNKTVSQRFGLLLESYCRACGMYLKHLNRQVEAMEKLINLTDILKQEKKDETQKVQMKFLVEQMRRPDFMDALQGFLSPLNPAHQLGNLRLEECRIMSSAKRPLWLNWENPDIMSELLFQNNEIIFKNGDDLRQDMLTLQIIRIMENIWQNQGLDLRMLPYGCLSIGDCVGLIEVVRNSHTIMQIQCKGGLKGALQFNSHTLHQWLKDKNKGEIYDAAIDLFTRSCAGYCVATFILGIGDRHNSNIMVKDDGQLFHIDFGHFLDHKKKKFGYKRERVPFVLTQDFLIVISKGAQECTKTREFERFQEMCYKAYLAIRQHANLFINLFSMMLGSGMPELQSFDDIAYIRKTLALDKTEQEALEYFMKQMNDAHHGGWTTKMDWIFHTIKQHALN
recombinant human PI3Kα (6-His(p110-p85α)), sequence (P27986 whole entry partner): as the sequence (P27986 whole entry partner) above

Row | Compound | IC50 [1] [µM] | IC50 [2] [µM] | IC50 [3] [µM] | IC50 [4] [µM]
1 | CNS(=O)(=O)c1cc(-c2sc(Nc3cccc(N4C(=O)CC[C@H]4CO)n3)nc2C)cc2c1C(=O)N([C@@H](C)C1CC1)C2 [Example 57, 2-[(1S)-1-Cyclopropylethyl]-6-[2-({6-[(2S)-2-(hydroxymethyl)-5-oxopyrrolidin-1-yl]pyridin-2-yl}amino)-4-methyl-1,3-thiazol-5-yl]-N-methyl-3-oxo-2,3-dihydro-1H-isoindole-4-sulfonamide] | 0.0007 | 0.011 | 0.0012 | 0.085
2 | Cc1nc(Nc2cccc(N3CCCCC3=O)n2)sc1-c1cc2c(c(S(=O)(=O)NC3COC3)c1)C(=O)N([C@@H](C)C(F)(F)F)C2 [Example 36, 6-(4-Methyl-2-{[6-(2-oxopiperidin-1-yl)pyridin-2-yl]amino}-1,3-thiazol-5-yl)-N-(oxetan-3-yl)-3-oxo-2-[(2S)-1,1,1-trifluoropropan-2-yl]-2,3-dihydro-1H-isoindole-4-sulfonamide] | 0.001 | 0.05 | 0.0012 | 0.113
3 | CNS(=O)(=O)c1cc(-c2sc(Nc3cccc(N4C[C@H](C)NCC4=O)n3)nc2C)cc2c1C(=O)N([C@@H](C)C1CC1)C2 [Example 42, 2-[(1S)-1-Cyclopropylethyl]-N-methyl-6-[4-methyl-2-({6-[(5S)-5-methyl-2-oxopiperazin-1-yl]pyridin-2-yl}amino)-1,3-thiazol-5-yl]-3-oxo-2,3-dihydro-1H-isoindole-4-sulfonamide] | 0.0008 | 0.069 | 0.001 | 0.286
4 | Cc1nc(Nc2cccc(N3CCCOC3=O)n2)sc1-c1cc2c(c(S(=O)(=O)NC(C)C)c1)C(=O)N([C@@H](C)C(F)(F)F)C2 [Example 29, 6-(4-Methyl-2-{[6-(2-oxo-1,3-oxazinan-3-yl)pyridin-2-yl]amino}-1,3-thiazol-5-yl)-3-oxo-N-(propan-2-yl)-2-[(2S)-1,1,1-trifluoropropan-2-yl]-2,3-dihydro-1H-isoindole-4-sulfonamide] | 0.0005 | 0.047 | 0.0022 | 0.062
5 | CNS(=O)(=O)c1cc(-c2sc(Nc3cccc(N4CCCS4(=O)=O)n3)nc2C)cc2c1C(=O)N([C@@H](C)C1CC1)C2 [Example 24, 2-[(1S)-1-Cyclopropylethyl]-6-(2-{[6-(1,1-dioxido-1,2-thiazolidin-2-yl)pyridin-2-yl]amino}-4-methyl-1,3-thiazol-5-yl)-N-methyl-3-oxo-2,3-dihydro-1H-isoindole-4-sulfonamide] | 0.0004 | 0.042 | 0.0009 | 0.897
6 | Cc1nc(Nc2cccc(N3CCNC3=O)n2)sc1-c1cc2c(c(S(C)(=O)=O)c1)C(=O)N([C@@H](C)C(F)(F)F)C2 [Example 11, 5-(4-Methyl-2-{[6-(2-oxoimidazolidin-1-yl)pyridin-2-yl]amino}-1,3-thiazol-5-yl)-7-(methylsulfonyl)-2-[(2S)-1,1,1-trifluoropropan-2-yl]-2,3-dihydro-1H-isoindol-1-one] | 0.0012 | 0.054 | 0.0008 | 0.291
7 | CCOCC(=O)N(C)c1cccc(Nc2nc(C)c(-c3cc4c(c(S(=O)(=O)NC)c3)C(=O)N([C@@H](C)C3CC3)C4)s2)n1 [Example 17, N-{6-[(5-{2-[(1S)-1-Cyclopropylethyl]-7-(methylsulfamoyl)-1-oxo-2,3-dihydro-1H-isoindol-5-yl}-4-methyl-1,3-thiazol-2-yl)amino]pyridin-2-yl}-2-ethoxy-N-methylacetamide] | 0.0003 | 0.048 | 0.0011 | 0.677
8 | Cc1nc(Nc2cccc(N3CCOC3=O)n2)sc1-c1cc2c(c(S(=O)(=O)NC3COC3)c1)C(=O)N([C@@H](C)C1CC1)C2 [Example 33, 2-[(1S)-1-Cyclopropylethyl]-6-(4-methyl-2-{[6-(2-oxo-1,3-oxazolidin-3-yl)pyridin-2-yl]amino}-1,3-thiazol-5-yl)-N-(oxetan-3-yl)-3-oxo-2,3-dihydro-1H-isoindole-4-sulfonamide] | 0.0014 | 0.472 | 0.0012 | 3.42
9 | Cc1nc(Nc2cccc(N3CCNC3=O)n2)sc1-c1cc2c(c(S(=O)(=O)NC(C)C)c1)C(=O)N([C@@H](C)C(F)(F)F)C2 [Example 30, 6-(4-Methyl-2-{[6-(2-oxoimidazolidin-1-yl)pyridin-2-yl]amino}-1,3-thiazol-5-yl)-3-oxo-N-(propan-2-yl)-2-[(2S)-1,1,1-trifluoropropan-2-yl]-2,3-dihydro-1H-isoindole-4-sulfonamide] | 0.0005 | 0.074 | 0.0014 | 0.722
10 | CNS(=O)(=O)c1cc(-c2sc(Nc3cccc(N4CC(=O)N5CCC[C@H]5C4=O)n3)nc2C)cc2c1C(=O)N([C@@H](C)C1CC1)C2 [Example 23, 2-[(1S)-1-Cyclopropylethyl]-6-[2-({6-[(8aS)-1,4-dioxohexahydropyrrolo[1,2-a]pyrazin-2(1H)-yl]pyridin-2-yl}amino)-4-methyl-1,3-thiazol-5-yl]-N-methyl-3-oxo-2,3-dihydro-1H-isoindole-4-sulfonamide] | 0.0194 | 0.368 | 0.0013 | 4.88
11 | CNS(=O)(=O)c1cc(-c2sc(Nc3cccc(N4C(=O)CC[C@@H]4CO)n3)nc2C)cc2c1C(=O)N([C@@H](C)C1CC1)C2 [Example 58, 2-[(1S)-1-Cyclopropylethyl]-6-[2-({6-[(2R)-2-(hydroxymethyl)-5-oxopyrrolidin-1-yl]pyridin-2-yl}amino)-4-methyl-1,3-thiazol-5-yl]-N-methyl-3-oxo-2,3-dihydro-1H-isoindole-4-sulfonamide] | 0.0029 | 0.043 | 0.0012 | 0.998
12 | CNS(=O)(=O)c1cc(-c2sc(Nc3cccc(N4CCN(C)CC4=O)n3)nc2C)cc2c1C(=O)N([C@@H](C)C1CC1)C2 [Example 22, 2-[(1S)-1-Cyclopropylethyl]-N-methyl-6-(4-methyl-2-{[6-(4-methyl-2-oxopiperazin-1-yl)pyridin-2-yl]amino}-1,3-thiazol-5-yl)-3-oxo-2,3-dihydro-1H-isoindole-4-sulfonamide] | 0.0013 | 0.038 | 0.001 | 0.328
13 | Cc1nc(Nc2cccc(N3CCCOC3=O)n2)sc1-c1cc2c(c(S(C)(=O)=O)c1)C(=O)N([C@@H](C)C1CC1)C2 [Example 8, 2-[(1S)-1-Cyclopropylethyl]-5-(4-methyl-2-{[6-(2-oxo-1,3-oxazinan-3-yl)pyridin-2-yl]amino}-1,3-thiazol-5-yl)-7-(methylsulfonyl)-2,3-dihydro-1H-isoindol-1-one] | 0.0012 | 0.023 | 0.0013 | 0.324
14 | CNS(=O)(=O)c1cc(-c2sc(Nc3cccc(N4CCNCCC4=O)n3)nc2C)cc2c1C(=O)N([C@@H](C)C1CC1)C2 [Example 53, 2-[(1S)-1-Cyclopropylethyl]-N-methyl-6-(4-methyl-2-{[6-(7-oxo-1,4-diazepan-1-yl)pyridin-2-yl]amino}-1,3-thiazol-5-yl)-3-oxo-2,3-dihydro-1H-isoindole-4-sulfonamide] | 0.0007 | 0.064 | 0.0014 | 0.264
15 | Cc1nc(Nc2cccc(N3Cc4ncccc4C3=O)n2)sc1-c1cc2c(c(S(C)(=O)=O)c1)C(=O)N([C@@H](C)C1CC1)C2 [Example 9, 6-{6-[(5-{2-[(1S)-1-Cyclopropylethyl]-7-(methylsulfonyl)-1-oxo-2,3-dihydro-1H-isoindol-5-yl}-4-methyl-1,3-thiazol-2-yl)amino]pyridin-2-yl}-6,7-dihydro-5H-pyrrolo[3,4-b]pyridin-5-one] | 0.0027 | 11.4 | 0.001 | 33.3
16 | CNS(=O)(=O)c1cc(-c2sc(Nc3cccc(N4CC[C@H](O)C4=O)n3)nc2C)cc2c1C(=O)N([C@@H](C)C1CC1)C2 [Example 56, 2-[(1S)-1-Cyclopropylethyl]-6-[2-({6-[(3S)-3-hydroxy-2-oxopyrrolidin-1-yl]pyridin-2-yl}amino)-4-methyl-1,3-thiazol-5-yl]-N-methyl-3-oxo-2,3-dihydro-1H-isoindole-4-sulfonamide] | 0.0005 | 0.026 | 0.001 | 0.249
17 | Cc1nc(Nc2cccc(N3CC[C@H](O)C3=O)n2)sc1-c1cc2c(c(S(=O)(=O)NC(C)C)c1)C(=O)N([C@@H](C)C(F)(F)F)C2 [Example 60, 6-[2-({6-[(3S)-3-Hydroxy-2-oxopyrrolidin-1-yl]pyridin-2-yl}amino)-4-methyl-1,3-thiazol-5-yl]-3-oxo-N-(propan-2-yl)-2-[(2S)-1,1,1-trifluoropropan-2-yl]-2,3-dihydro-1H-isoindole-4-sulfonamide] | 0.0005 | 0.057 | 0.0012 | 0.322
